Our source for the IC50 and DC50 values is patent publication US11414416B1, “Compounds and uses thereof” (Foghorn Therapeutics Inc., priority 2019, dated 2022).

Assay [1] addresses BRD9 bromodomain (Homo sapiens (Human), UniProt Q9H8M2). Nature of the assay: BRD9 bromodomain TR-FRET competition binding assay. The settings on record: Table 4; competition with biotinylated ligand, 3 nM Flag-BRD9, 90 minutes. How it is done:
Procedure: His-Flag-BRD9 (P133-K239; Swiss Prot Q9H8M2; SEQ ID NO:1 mgsshhhhhhenlyfq/gdykddddkgslevlfqg/[…] […]) was cloned, expressed, purified, and then treated with TEV protease. Cleaved His tag was removed by purification. The binding of a biotinylated small molecule ligand of BRD9 was assessed via the LANCE® TR-FRET platform (PerkinElmer), and the compounds were assayed for inhibitory activity against this interaction.
A mixture of biotinylated-ligand and SureLight™ Allophycocyanin-Streptavidin (APC-SA, PerkinElmer AD0201) in 50 mM HEPES (pH 7.4), 50 mM NaCl, 1 mM TCEP (pH 7), 0.01% (v/v) Tween-20, 0.01% (w/v) bovine serum albumin was added to a white 384-well PerkinElmer Proxiplate Plus plate. DMSO or 3-fold serially diluted compounds were then added to the Proxiplate followed by addition of Flag-BRD9. After a 10-minute incubation at room temperature, Eu-W1024 anti-FLAG (PerkinElmer, AD0273) was added. The final reaction mixture that contained 3.75 nM biotinylated ligand, 3 nM Flag-BRD9, 7.5 nM SureLight™ Allophycocyanin-Streptavidin, and 0.2 nM Eu-W1024 anti-FLAG was incubated at room temperature for 90 minutes.
Results: The plates were then read on a PerkinElmer Envision plate reader to determine the ratio of emission at 665 nm over 615 nm. […]

In assay [2] the target is Nanoluciferase-BRD9 fusion protein (Homo sapiens (Human), UniProt Q9H8M2). Nature of the assay: SYO1 BRD9 NanoLuc degradation assay. Format: cell-based. The settings on record: Table 5A, SYO-1 cells expressing 3×FLAG-NLuc-BRD9, 6 hours; for DC50: read-out: SYO1 BRD9-NanoLuc degradation IC50. Put shortly: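 Degradation was read as loss of nanoluciferase signal (Nano-Glo) after 6 h compound exposure in a stable SYO-1 line carrying 3×FLAG-NLuc-BRD9 (8000 cells/well). Normalised between DMSO (high) and a 1 μM known BRD9 degrader (low).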

pIC50: −log10 of the molar value. A value given as a limit tells only on which side of the number the result lay.

Sequence of Nanoluciferase-BRD9 fusion protein (Q9H8M2 whole entry, the tested form may be a part): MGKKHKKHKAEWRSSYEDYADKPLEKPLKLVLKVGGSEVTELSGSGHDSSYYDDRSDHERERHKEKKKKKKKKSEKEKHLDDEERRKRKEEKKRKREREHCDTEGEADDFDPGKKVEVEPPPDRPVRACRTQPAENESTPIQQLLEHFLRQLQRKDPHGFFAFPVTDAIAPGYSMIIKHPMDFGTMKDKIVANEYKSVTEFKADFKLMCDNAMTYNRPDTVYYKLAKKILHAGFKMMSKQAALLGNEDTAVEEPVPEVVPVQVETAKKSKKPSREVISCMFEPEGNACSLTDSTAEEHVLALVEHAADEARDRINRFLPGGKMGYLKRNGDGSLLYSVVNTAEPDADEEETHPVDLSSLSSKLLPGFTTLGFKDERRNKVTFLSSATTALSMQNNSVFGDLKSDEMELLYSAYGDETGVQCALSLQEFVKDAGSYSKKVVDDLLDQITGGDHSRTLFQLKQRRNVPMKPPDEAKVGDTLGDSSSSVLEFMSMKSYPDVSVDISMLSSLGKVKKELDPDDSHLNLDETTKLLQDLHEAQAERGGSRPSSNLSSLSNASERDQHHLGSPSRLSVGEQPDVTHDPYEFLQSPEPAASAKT
Sequence of BRD9 bromodomain (Q9H8M2 133-239): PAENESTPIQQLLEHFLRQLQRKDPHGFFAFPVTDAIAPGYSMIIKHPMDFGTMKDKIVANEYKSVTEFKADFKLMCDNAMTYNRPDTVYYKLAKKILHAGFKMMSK

Take `COc1cc(-c2cn(C)c(=O)c3cnccc23)cc(OC)c1CN1CC2C1CCN2C(=O)CCOCCOc1ccc2c(c1)C(=O)N(C1CCC(=O)NC1=O)C2=O` (stereo not shown) [Compound D128]: the pIC50 (as a rule, the IC50 on a negative log10 scale, so that one unit is a factor of ten) in assay [1] is 7.00 to 8.00; in assay [2], greater than 8.00.

Compound `COc1cc(-c2cn(C)c(=O)c3cnccc23)cc(OC)c1CN1CCC2(C[C@H]2NC(=O)CCOCCOc2cccc3c2C(=O)N(C2CCC(=O)NC2=O)C3=O)C1` (stereo partly shown) [Compound D111] had a pIC50 in assay [1] greater than 8.00. In addition, in assay [2], the DC50 lay in the range of 10 to 100 nM.

As for `COc1cc(-c2cn(C)c(=O)c3cnccc23)cc(OC)c1CN(C)C1CC2CC1CN2C(=O)CCOCCOc1cccc2c1C(=O)N(C1CCC(=O)NC1=O)C2=O` (stereo not shown) [Compound D162], the pIC50 in assay [1] and in assay [2] was 7.00 to 8.00 in each case.

On to `COc1cc(-c2cn(C)c(=O)c3cnccc23)cc(OC)c1CN(C)C1CCC12CCN(C(=O)CCOCCOc1ccc3c(c1)C(=O)N(C1CCC(=O)NC1=O)C3=O)CC2` (stereo not shown) [Compound D173], for which the pIC50 in assay [1] is 7.00 to 8.00; in assay [2] it was greater than 8.00.

`COc1cc(-c2cn(C)c(=O)c3cnccc23)cc(OC)c1CN1CCC(OC2CCN(C(=O)CCOCCOc3cccc4c3C(=O)N(C3CCC(=O)NC3=O)C4=O)C2)CC1` (stereo not shown) [Compound D114] gave a negative-log IC50 (pIC50) in assay [1] greater than 8.00. The DC50 in assay [2] was 10 to 100 nM.

As for `COc1cc(-c2cn(C)c(=O)c3cnccc23)cc(OC)c1CN(C)CC1CC2(CCN(C(=O)CCOCCOc3ccc4c(c3)C(=O)N(C3CCC(=O)NC3=O)C4=O)CC2)O1` (stereo not shown) [Compound D167], the pIC50 in assay [1] and in assay [2] was greater than 8.00 throughout.

For `COc1cc(-c2cn(C)c(=O)c3cnccc23)cc(OC)c1CN1CCC2(C[C@@H]2NC(=O)CCOCCOc2cccc3c2C(=O)N(C2CCC(=O)NC2=O)C3=O)C1` (stereo partly shown) [Compound D112], the negative logarithm of the IC50 (pIC50) in assay [1] is greater than 8.00. Moreover, the DC50 in assay [2] fell in the range of 100 to 1000 nM.

For the compound `COc1cc(-c2cn(C)c(=O)c3cnccc23)cc(OC)c1CN1CC(NC(=O)CCCCCOc2cccc3c2C(=O)N(C2CCC(=O)NC2=O)C3=O)C1` (stereo not shown) [Compound D5, N-(1-[[2,6-dimethoxy-4-(2-methyl-1-oxo-1,2-dihydro-2,7-naphthyridin-4-yl)phenyl]methyl]azetidin-3-yl)-6-[[2-(2,6-dioxopiperidin-3-yl)-1,3-dioxo-2,3-dihydro-1H-isoindol-4-yl]oxy]hexanamide], the pIC50 in assay [1] was greater than 8.00. The DC50 in assay [2] was in the range of 10 to 100 nM.

In turn, `COc1cc(-c2cn(C)c(=O)c3cnccc23)cc(OC)c1CN(C)CC1CC2(CCN(C(=O)CCOCCOc3cccc4c3C(=O)N(C3CCC(=O)NC3=O)C4=O)CC2)CO1` (stereo not shown) [Compound D109] gave a pIC50 in assay [1] greater than 8.00. The DC50 in assay [2] fell in the range of 10 to 100 nM.

As for `COc1cc(-c2cn(C)c(=O)c3cnccc23)cc(OC)c1CN1CCC2(C[C@@H]2NC(=O)CCOCCOc2ccc3c(c2)C(=O)N(C2CCC(=O)NC2=O)C3=O)C1` (stereo partly shown) [Compound D125], the pIC50 in assay [1] was greater than 8.00. In assay [2], the DC50 fell in the range of 10 to 100 nM.

`COc1cc(-c2cn(C)c(=O)c3cnccc23)cc(OC)c1CN(C)C12CC(C(=O)NCCOCCOCCNc3cccc4c3C(=O)N(C3CCC(=O)NC3=O)C4=O)(C1)C2` (stereo not shown) [Compound D58, 3-([[2,6-dimethoxy-4-(2-methyl-1-oxo-2,7-naphthyridin-4-yl)phenyl]methyl] (methyl)amino)-N-[2-[2-(2-[[2-(2,6-dioxopiperidin-3-yl)-1,3-dioxoisoindol-4-yl]amino]ethoxy)ethoxy]ethyl]bicyclo[1.1.1]pentane-1-carboxamide]: the pIC50 in assay [1] and in assay [2] was greater than 8.00 each time.

On to `COc1cc(-c2cn(C)c(=O)c3cnccc23)cc(OC)c1CN1CCC2(CC1)CN(C(=O)CCCOc1cccc3c1C(=O)N(C1CCC(=O)NC1=O)C3=O)CCO2` (stereo not shown) [Compound D39, 4-[4-(9-[[2,6-dimethoxy-4-(2-methyl-1-oxo-2,7-naphthyridin-4-yl)phenyl]methyl]-1-oxa-4,9-diazaspiro[5.5]undecan-4-yl)-4-oxobutoxy]-2-(2,6-dioxopiperidin-3-yl)isoindole-1,3-dione], for which the pIC50 in assay [1] and in assay [2] was greater than 8.00 in each case.

On to `COc1cc(-c2cn(C)c(=O)c3cnccc23)cc(OC)c1CN1CC(C(=O)N(C)CCCCCNc2cccc3c2C(=O)N(C2CCC(=O)NC2=O)C3=O)C1` (stereo not shown) [Compound D15, 1-[[2,6-dimethoxy-4-(2-methyl-1-oxo-1,2-dihydro-2,7-naphthyridin-4-yl)phenyl]methyl]-N-(5-[[2-(2,6-dioxopiperidin-3-yl)-1,3-dioxo-2,3-dihydro-1H-isoindol-4-yl]amino]pentyl)-N-methylazetidine-3-carboxamide formic acid], for which the pIC50 in assay [1] and in assay [2] was greater than 8.00 each time.

On to `COc1cc(-c2cn(C)c(=O)c3cnccc23)cc(OC)c1CN1CCC2(CC1)CN(C(=O)CCOCCOc1cccc3c1C(=O)N(C1CCC(=O)NC1=O)C3=O)C2` (stereo not shown) [Compound D88], for which the pIC50 in assay [1] is greater than 8.00. Also, in assay [2], the DC50 is 10 to 100 nM.

As to `COc1cc(-c2cn(C)c(=O)c3cnccc23)cc(OC)c1CN1CCC(COC2CCN(C(=O)CCOCCOc3ccc4c(c3)C(=O)N(C3CCC(=O)NC3=O)C4=O)C2)CC1` (stereo not shown) [Compound D124], the pIC50 in assay [1] and in assay [2] was greater than 8.00 throughout.

`COc1cc(-c2cn(C)c(=O)c3cnccc23)cc(OC)c1CN1CC(C(=O)NCCS(=O)(=O)CCNc2cccc3c2C(=O)N(C2CCC(=O)NC2=O)C3=O)C1` (stereo not shown) [Compound D30, 1-(2,6-dimethoxy-4-(2-methyl-1-oxo-1,2-dihydro-2,7-naphthyridin-4-yl)benzyl)-N-(2-((2-((2-(2,6-dioxopiperidin-3-yl)-1,3-dioxoisoindolin-4-yl)amino)ethyl)sulfonyl)ethyl)azetidine-3-carboxamide] showed a negative logarithm of the IC50 (pIC50) in assay [1] greater than 8.00. In addition, the DC50 in assay [2] lay in the range of 10 to 100 nM.

Turning to `COc1cc(-c2cn(C)c(=O)c3cnccc23)cc(OC)c1CN(C)C12CC(NC(=O)CCCCCOc3cccc4c3C(=O)N(C3CCC(=O)NC3=O)C4=O)(C1)C2` (stereo not shown) [Compound D60, N-[3-([[2,6-dimethoxy-4-(2-methyl-1-oxo-2,7-naphthyridin-4-yl)phenyl]methyl](methyl)amino)bicyclo[1.1.1]pentan-1-yl]-6-[[2-(2,6-dioxopiperidin-3-yl)-1,3-dioxoisoindol-4-yl]oxy]hexanamide formic acid], the negative-log IC50 (pIC50) in assay [1] and in assay [2] was greater than 8.00 throughout.

On to `COc1cc(-c2cn(C)c(=O)c3cnccc23)cc(OC)c1CN(C)CC(=O)NCCCCN1CCOC2(CCN(c3ccc4c(c3)C(=O)N(C3CCC(=O)NC3=O)C4=O)CC2)C1` (stereo not shown) [Compound D73, 2-([[2,6-dimethoxy-4-(2-methyl-1-oxo-2,7-naphthyridin-4-yl)phenyl]methyl](methyl)amino)-N-(4-[9-[2-(2,6-dioxopiperidin-3-yl)-1,3-dioxoisoindol-5-yl]-1-oxa-4,9-diazaspiro[5.5]undecan-4-yl]butyl)acetamide formic acid], for which the negative-log IC50 (pIC50) is 7.00 to 8.00 in assay [1] and greater than 8.00 in assay [2].

As for `COc1cc(-c2cn(C)c(=O)c3cnccc23)cc(OC)c1CN1CC(CC(=O)NCCCCCCCCNc2cccc3c2C(=O)N(C2CCC(=O)NC2=O)C3=O)C1` (stereo not shown) [Compound D9, 2-(1-[[2,6-dimethoxy-4-(2-methyl-1-oxo-1,2-dihydro-2,7-naphthyridin-4-yl)phenyl]methyl]azetidin-3-yl)-N-(8-[[2-(2,6-dioxopiperidin-3-yl)-1,3-dioxo-2,3-dihydro-1H-isoindol-4-yl]amino]octyl)acetamide formic acid], the pIC50 in assay [1] and in assay [2] was greater than 8.00 each time.

For the compound `COc1cc(-c2cn(C)c(=O)c3cnccc23)cc(OC)c1CN1CC(C(=O)NCCCCCNc2cccc3c2C(=O)N(C2CCC(=O)NC2=O)C3=O)C1` (stereo not shown) [Compound D3, 1-[[2,6-dimethoxy-4-(2-methyl-1-oxo-1,2-dihydro-2,7-naphthyridin-4-yl)phenyl]methyl]-N-(5-[[2-(2,6-dioxopiperidin-3-yl)-1,3-dioxo-2,3-dihydro-1H-isoindol-4-yl]amino]pentyl) azetidine-3-carboxamide], the negative logarithm of the IC50 (pIC50) in assay [1] and in assay [2] was greater than 8.00 in each case.

As for `COc1cc(-c2cn(C)c(=O)c3cnccc23)cc(OC)c1CN1CC(C(=O)NCCCCCCCCNc2cccc3c2C(=O)N(C2CCC(=O)NC2=O)C3=O)C1` (stereo not shown) [Compound D1, 1-[[2,6-dimethoxy-4-(2-methyl-1-oxo-1,2-dihydro-2,7-naphthyridin-4-yl)phenyl]methyl]-N-(8-[[2-(2,6-dioxopiperidin-3-yl)-1,3-dioxo-2,3-dihydro-1H-isoindol-4-yl]amino]octyl)azetidine-3-carboxamide formic acid], the results for the negative-log IC50 (pIC50) in assay [1] and in assay [2] were 7.00 to 8.00 and greater than 8.00, respectively.

Consider `COc1cc(-c2cn(C)c(=O)c3cnccc23)cc(OC)c1CN1CC2CN(C(=O)CCOCCOc3cccc4c3C(=O)N(C3CCC(=O)NC3=O)C4=O)CCC21` (stereo not shown) [Compound D92], for which, in assay [1], the pIC50 was greater than 8.00.
